Data taken from patent US11324726B2, “Small molecular Stemazole for promoting stem cell clonal formation and applications thereof” (BEIJING NORMAL UNIVERSITY, priority 2016, dated 2022).

How the values were obtained:
[1] = system: human hippocampal neurosphere stem cells; assay: Cell viability assay (ATP) of neurosphere stem cells (Example 6); format: cell-based; conditions: series concentrations, 4 days; maximum increase versus DMSO control
Procedure: 1) On a superclean bench and under sterile conditions, human embryo hippocampus was taken out;
2) After envelope and blood vessels were removed under a dissecting microscope, tissue obtained was rinsed with pre-cooled PBS at 4° C. 3-5 times, leaving a very small amount of PBS;
3) The tissue was cut into pieces using ophthalmic scissors, and about 5 ml of culture medium was added to suspend the tissue pieces, and then the obtained cell suspension was gently pipetted to achieve single cell state with a pipette tip;
4) The cell suspension was filtered through a 40 μm pore size cell sieve;
5) Cell density was regulated to 1×10^6/ml, and then the cells were inoculated into a […] glass culture flask;
6) The cells in the flask were cultured in a 37° C., 5% CO2 cell culture incubator.
The human hippocampal neurosphere stem cells were mechanically pipetted into small clones, regulated into a suitable density, and inoculated into a 96-well, black-wall plate at about 50 neurospheres/110 μL cell suspension/well. […] Without changing the medium, ATP was added at 20 μL/well after the compound acted for 4 days or other time, and the viability of cells was detected.

H9 cells [2] = assay: Ki67 proliferation marker immunofluorescence after total nutrient removal culture (Example 5 II); format: cell-based, human; conditions: 15 hours total nutrient removal culture; 100 μM
Procedure: Following the experimental method in Example 3, H9 cells were divided into experiment group (ST group), control group (DMSO group) and normal culture group and cultured. After total nutrient removal culture for 15 hours, immunofluorescence staining of the H9 cells was conducted for Ki67 (a proliferation marker).

[3] = system: Human embryonic stem cell strain H1-9 cells; assay: Number of cells as a function of culture time in single-cell culture (Example 4); format: cell-based; conditions: 100 μM; complete medium; single-cell culture on MEF feeder
Procedure: Human embryonic stem cell strain H1-9 cells were digested into single cells, then divided into following three groups and inoculated on low-density MEF feeder layer cells in 6-well plates:
(§1) Experiment group (ST group): complete medium+Stemazole dissolved in DMSO at a final concentration in the culture medium of 100 μM;
Control group (DMSO group): complete medium+DMSO with the amount corresponding to the experiment group;
(§2) Normal culture group: complete medium.
The cells in each well of the three groups were maintained well grown on the MEF feeder layer cells, and the medium was supplemented once every 4 days.

[4] = system: human embryonic stem cell strain H9 cells; assay: Single cell clone formation in single-cell culture, alkaline phosphatase and OCT-4 staining (Example 1); format: cell-based; conditions: 100 μM; for number of clones of alkaline phosphatase positive cells: H9 single cells on MEF feeder
Procedure: Alkaline Phosphatase Staining—
1) Rinsing cells with PBS, 3 times;
2) Fixing the cell with 4% paraformaldehyde for 10 minutes;
3) Washing with PBS, 3 times;
4) Preparing alkaline phosphatase staining agent:solution A:solution B:solution C=10 μl:10 μl:1 ml;
5) Adding the alkaline phosphatase staining agent to cover the cells, and staining for 20 minutes at room temperature in dark;
6) Aspirating off the staining agent, rinsing with PBS 3 times, storing the cells in PBS, and observing staining under a microscope.
Immunofluorescence Staining—
After being digested into single cells, human embryonic stem cell strain H9 cells were divided into two groups as follows, and inoculated on low density MEF feeder layer cells in 96-well plates:
as §1
Control group (DMSO group): complete medium+DMSO with an amount corresponding to the experiment group.
The cell ratio of each well in the two groups was H9 cell/100 MEF cells, and the medium was supplemented once every 4 days.
Alkaline phosphatase staining was performed on day 4 and day 8. The results are shown in FIG. 1A: the number and sizes of the clones formed by the H9 cells in the DMSO group were less and smaller, while the number and sizes of the clones formed in ST group were higher and larger. […] The number of clones of alkaline phosphatase positive cells in the DMSO group averaged about 12 on day 8, and the number of clones of the alkaline phosphatase positive cells in the ST group averaged about 23, and the difference between the number of the clones in the two groups was significant. As to the size, the diameter of the alkaline phosphatase positive cells in the DMSO group on day 4 averaged about 50 microns, and the diameter of the alkaline phosphatase positive cells in the ST group averaged about 100 microns. There was no significant difference between the sizes of the clones in the two groups. The diameter of the alkaline phosphatase positive cells in the DMSO group on day 8 averaged about 70 microns, and the diameter of the alkaline phosphatase positive cells in the ST group averaged about 200 microns. There was a significant difference between the sizes of the clones in the two groups.
OCT-4 immunofluorescence staining was performed on day 1 and day 8.

[5] = system: Human embryonic stem cell line H9 cells; assay: Apoptosis during total nutrient removal culture, Annexin V/PI flow cytometry (Example 3); format: cell-based; conditions: total nutrient removal for 15 hours; 100 μM; DMSO group about 43%, normal culture about 0.4%
Procedure: After passaged, human embryonic stem cell line H9 cells were divided into the following two groups and inoculated in 6-well plates:
Experiment group (ST group): total nutrient removal culture medium (complete medium with removal of serum and growth factor)+Stemazole dissolved in DMSO at a final concentration in the culture medium of 100 μM;
Control group (DMSO group): total nutrient removal culture medium+DMSO with an amount corresponding to the experiment group;
as §2
Apoptosis was detected by flow cytometry using the specific apoptosis assay kit Annexin V/PI.

H9 cells [6] = assay: Expression of stem cell markers after total nutrient removal culture, quantitative PCR and immunofluorescence (Example 5 I); format: cell-based, human; conditions: 15 hours total nutrient removal culture; 100 μM
Procedure: Following the experimental method in Example 3, H9 cells were divided into experiment group (ST group) and control group (DMSO group) and cultured. After 15 hours of total nutrient removal culture, the expression of each of human embryonic stem cells' important markers OCT-4, Sox2, FDF4, KLF4, REX1, and Nanog was detected by quantitative PCR.
Ct (Cycle threshold) of each sample was measured by calculating 2^−^ΔΔ^Ct, to compare differential expression of specific gene between different samples. In order to reduce systematic error and sampling error, triplicate wells in parallel were set for each sample. The average value of the triplicate wells was taken as the Ct of the sample, and then 2^−^ΔΔ^Ct was calculated according to the formulas below. […]
In addition, still following the experimental method in Example 3, 1H9 cells were divided into experiment group (ST group), control group (DMSO group) and normal culture group and cultured. After total nutrient removal culture for 15 hours, the expression of each of human embryonic stem cells' important markers OCT-4 and E-Cadherin was detected by immunofluorescence staining.

H9 cells [7] = assay: Embryoid body formation in total nutrient removal culture (Example 5 III); format: cell-based, human; conditions: measured at the 15th hour, 100 μM, compared to DMSO group
Procedure: Following the experimental method in Example 3, H9 cells were divided into experiment group (ST group), control group (DMSO group) and normal culture group and cultured. The formation of EBs was observed under a microscope at the 15th hour, and on day 2 and day 4 of total nutrient removal culture respectively, and the diameter and number of EBs were measured at the 15th hours.

H9 cells [8] = assay: Induced differentiation into endoderm, mesoderm and ectoderm cells, marker expression (Example 5 IV); format: cell-based, human; conditions: nutrient starving 15 hours, then 4 days differentiation medium; 100 μM
Description: Following the experimental method in Example 3, H9 cells were divided into experiment group (ST group), control group (DMSO group) and normal culture group and cultured.
The H9 cells were digested by Collagenase IV, washed with DMEM (high glucose) 3 times, and gently blown into small cell clusters, then were inoculated into 100 mm petri dishes with the culture medium changed into differentiation culture medium (DMEM/F12, 20% FBS, 1× non-essential amino acid, 1×sodium pyruvate, 1×β-mercaptoethanol, double antibiotics, and 2 mM glutamine). The medium was changed every 2 days, and the dishes were observed on each day. After 4 days, RNA was extracted and the differentiation ability of the H9 cells to endoderm, mesoderm and ectoderm cells was detected.

[9] = system: Human embryonic stem cell line H9 cells; assay: Apoptosis in single-cell culture, Annexin V/PI flow cytometry (Example 2); format: cell-based; conditions: day 2 of inoculation; Stemazole 100 μM, Y27632 10 μM; DMSO group 54.1%
Procedure: Human embryonic stem cell line H9 cells were digested into single cells, divided into 3 groups as follows, and then inoculated at a low density on low-density MEF feeder layer cells in 6-well plates:
Experiment group (ST group): complete medium+Stemazole dissolved in DMSO at a concentration in the final culture medium of 100 μM;
Negative control group (DMSO group): complete medium+DMSO at an amount corresponding to the experiment group;
Positive control group (Y27632 group): complete medium+Y27632 dissolved in DMSO at a concentration in the final culture medium of 10 μM.
The cell ratio of each well of the three groups was 10 H9 cells/1 MEF cell.
Apoptosis was detected by flow cytometry using the specific apoptosis assay kit Annexin V/PI on day 2 of inoculation.

## NNC(=S)Nc1ccc(-c2nnc(S)o2)cc1Br [Br-Stemazole, 4-(2-br-4-(5-mercapto-1,3,4-oxadiazole-2-yl)phenyl)thiosemicarbazide]
[1]
  cell viability increase over the control group: up to 2.1 times

## NNC(=S)Nc1ccc(-c2nnc(S)o2)cc1 [Stemazole, 4-(4-(5-mercapto-1,3,4-oxadiazole-2-yl)phenyl)thiosemicarbazide]
H9 cells [2]
  expression of proliferation marker Ki67: maintained the proliferation ability
[3]
  number of cells as a function of time: did not increase
[4]; day 1 and day 8
  OCT-4 immunofluorescence staining, single cell growth into monoclonal cells: single cells had grown into monoclonal cells
[4]; day 4, DMSO group about 50
  diameter of the alkaline phosphatase positive cells (clone size): about 100 microns
[4]; day 4, DMSO group about 8
  number of clones of alkaline phosphatase positive cells: about 18
[4]; day 8, DMSO group about 70
  diameter of the alkaline phosphatase positive cells (clone size): about 200 microns
[4]; day 8, DMSO group about 12
  number of clones of alkaline phosphatase positive cells: about 23
[5]
  apoptosis rate: about 8%
H9 cells [6]
  expression of markers OCT-4, Sox2, FDF4, KLF4, REX1, Nanog by quantitative PCR: maintained the stem cell characteristics
  expression of markers OCT-4 and E-Cadherin by immunofluorescence staining: maintained the stem cell characteristics
[1]
  cell viability increase over the control group: up to 2.7 times
H9 cells [7]
  formation of EBs, diameter and number: more EBs with larger diameter
H9 cells [8]
  expression of ectoderm marker GFAP: comparable to that of the normal control group cells
  expression of ectoderm marker Pax6: higher than that of normal control group cells
  expression of mesoderm marker MSX1: higher than that of normal control group cells
[9]
  Annexin V positive apoptotic cells: 25.2%

## C[C@@H](N)[C@H]1CC[C@H](C(=O)Nc2ccncc2)CC1 [Y27632, 4-[(1R)-1-aminoethyl]-N-(pyridine-4-yl)cyclohexane-1-carboxamide, reference compound]
[9]
  Annexin V positive apoptotic cells: 20.1%
